Measured values: PubChem BioAssay (NCI)
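Each compound was tested at five concentrations against cells in 96-well plates for 48 hours. GI50 is the concentration that inhibits growth by half. TGI: total growth inhibition.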

Assays:
Assay in all cases: NCI-60 cell line screen, 48 h
[1] = test system: COLO 205 colon
[2] = test system: HL-60(TB) leukemia
[3] = test system: T-47D breast
[4] = test system: NCI-H23 lung
[5] = test system: UACC-257 melanoma
[6] = test system: RXF 393 renal
[7] = test system: OVCAR-4 ovarian
[8] = test system: SNB-19 CNS
[9] = test system: BT-549 breast
[10] = test system: SF-539 CNS
[11] = test system: 786-0 renal
[12] = test system: OVCAR-5 ovarian
[13] = test system: HOP-92 NSCLC
[14] = test system: SK-MEL-5 melanoma
[15] = test system: NCI-H226 lung
[16] = test system: TK-10 renal
[17] = test system: CCRF-CEM leukemia
[18] = test system: UACC-62 melanoma
[19] = test system: UO-31 renal
[20] = test system: HCC-2998 colon
[21] = test system: SK-MEL-28 melanoma
[22] = test system: DU-145 prostate
[23] = test system: SF-295 CNS
[24] = test system: MDA-MB-435
[25] = test system: SK-MEL-2 melanoma
[26] = test system: SNB-75 CNS
[27] = test system: HOP-62 NSCLC

NCCN1CCN(c2nc(-c3ccccc3)nc3nc(-c4ccccc4)oc23)CC1
GI50 [1]: 1930 nM | TGI [1]: 3920 nM | GI50 [2]: 1860 nM | TGI [2]: 4480 nM | GI50 [3]: 2050 nM | TGI [3]: 4660 nM | GI50 [4]: 1690 nM | TGI [4]: 3210 nM | GI50 [5]: 3340 nM | TGI [5]: 13400 nM | GI50 [6]: 1630 nM | TGI [6]: 3410 nM | GI50 [7]: 2150 nM | TGI [7]: 4420 nM | GI50 [8]: 1820 nM | TGI [8]: 3460 nM | GI50 [9]: 1680 nM | TGI [9]: 3310 nM | GI50 [10]: 1790 nM | TGI [10]: 3250 nM | GI50 [11]: 1770 nM | TGI [11]: 3640 nM | GI50 [12]: 1770 nM | TGI [12]: 3260 nM | GI50 [13]: 1350 nM | TGI [13]: 2870 nM | GI50 [14]: 1740 nM | TGI [14]: 3180 nM | GI50 [15]: 1970 nM | TGI [15]: 4130 nM | GI50 [16]: 1650 nM | TGI [16]: 3390 nM | GI50 [17]: 919 nM | TGI [17]: 3290 nM | GI50 [18]: 1850 nM | TGI [18]: 3470 nM | GI50 [19]: 1460 nM | TGI [19]: 3010 nM | GI50 [20]: 1630 nM | TGI [20]: 3060 nM | GI50 [21]: 1790 nM | TGI [21]: 3350 nM | GI50 [22]: 1920 nM | TGI [22]: 3450 nM | GI50 [23]: 1890 nM | TGI [23]: 3600 nM | GI50 [24]: 1820 nM | TGI [24]: 3320 nM | GI50 [25]: 22300 nM | TGI [25]: 47700 nM | GI50 [26]: 1300 nM | TGI [26]: 2600 nM | GI50 [27]: 2030 nM
